Values quoted from earlier work, collected in patent US12551486B2, “Rivaroxaban formulation” (Shanghai Auson Pharmaceuticals Co., Ltd., priority 2021, dated 2026).

- Solubility in water: insoluble in water
SMILES: O=C(NC[C@H]1CN(c2ccc(N3CCOCC3=O)cc2)C(=O)O1)c1ccc(Cl)s1 [Rivaroxaban, 5-chloro-N-[[(5S)-2-oxo-3-[4-(3-oxomorpholin-4-yl)phenyl]-1,3-oxazolidin-5-yl]methyl]thiophene-2-carboxamide]
